According to patent US20240065302A1, “SWEETENER COMPOSITIONS COMPRISING MOGROSIDES AND USES THEREOF” (Firmenich Incorporated, priority 2021, published 2024):

Experiments:
Type in all cases: in vivo, human
[1] = Expert panelists' comparison of mogrosides with stevia; settings: with respect to Examples 4 and 5 (so in the source)
Experimental: (§1) A panel of flavorists at three locations evaluated lemon-lime beverage various mogrosides at a concentration of 600 ppm mogrosides for in-mouth attributes (peak sweetness, upfront sweetness, bitterness, and mouthfeel/thickness) and aftertaste attributes (sweet tastle linger), on a 0 to 10 scale. The in-mouth attributes were evaluated while holding the sample in the mouth, while the aftertaste attributes were evaluated after expectoration.
as §1, with “vanilla milk containing” for “lemon-lime beverage”, “400” for “600”, “expectoration. The data was analyzed using Duncan's new multiple range test and the scores are provided in the data below in parentheses.” for “expectoration.”

[2] = Additional sensory testing for lemon-flavored (lemon-lime) beverage (panel of flavorists); settings: 600 ppm mogrosides, in-mouth, 0 to 10 scale
Experimental: as §1

[3] = Additional sensory testing for vanilla milk (panel of flavorists); settings: 400 ppm mogrosides, in-mouth, 0 to 10 scale
Experimental: as §1, with “vanilla milk containing” for “lemon-lime beverage”, “400” for “600”, “expectoration. The data was analyzed using Duncan's new multiple range test and the scores are provided in the data below in parentheses.” for “expectoration.”

[4] = Sensory testing for sparkling orange beverage (panel of volunteers)
Experimental: (§2) A panel of volunteers evaluated siratose for in-mouth attributes (sweetness, delayed sweetness, sourness, bitterness, global flavor intensity, thickness/body, and astringence) and aftertaste (AT) attributes (lingering sweetness, overall off-taste intensity, licorice off-tast, bitterness off-taste, and mouth coating) on a 10-point scale. Two replicate session were conducted, with a 20 minute break between sessions. There was a 90 second delay between samples within a session. Panelists evaluated all samples in a first session and evaluated the samples again a second time in a second session. Control samples of Rebaudioside M (Reb M) were evaluated during all sessions as a control. Mogroside V was also evaluated and sensory data for mogroside V is provided.
(§3) Data analysis was performed using 2-way analysis of variance (ANOVA) with interaction using Tukey's HSD test. The data was normalized for each attribute according to average scores for Reb M.
A panel of volunteers evaluated a sparkling orange beverage containing siratose for in-mouth attributes and aftertaste attibutes according to the methods described in Example 1 above.

[5] = Sensory testing for vanilla milk (panel of volunteers); settings: for Licorice Aftertaste / Lingering Sweetness / Mouth Coating / Overall Off-Taste: aftertaste
Experimental: as §2, §3
A panel of volunteers evaluated vanilla milk containing siratose for in-mouth attributes and aftertaste attributes according to the methods described in Example 1 above.

[6] = Sensory testing for lemon-lime carbonated soft drink (panel of volunteers)
Experimental: as §2, §3
A panel of volunteers evaluated the siratose-containing lemon-lime carbonated soft drink for in-mouth attributes and aftertaste attributes according to the methods described in Example 1 above.

[7] = Sensory testing for apple drink (panel of volunteers); settings: for Bitterness / Delayed Sweetness / Global Flavor Intensity / Sweetness / Thickness/Body: in-mouth, normalized to Reb M
Experimental: as §2, §3

[8] = 250 ppm, aftertaste, 10-point scale, normalized
[9] = 250 ppm, in-mouth, 10-point scale, normalized
[10] = 200 ppm, 10-point scale, normalized
[11] = 200 ppm, in-mouth, 10-point scale, normalized
[12] = 400 ppm, 10-point scale, normalized
[13] = 400 ppm, in-mouth, 10-point scale, normalized
[14] = 600 ppm, aftertaste, 10-point scale, normalized
[15] = 600 ppm, in-mouth, 10-point scale, normalized
[16] = 250 ppm, aftertaste, 10-point scale
[17] = 500 ppm, aftertaste, 10-point scale

## C[C@H](CC[C@@H](O[C@@H]1O[C@H](CO[C@@H]2O[C@H](CO)[C@@H](O)[C@H](O)[C@H]2O)[C@@H](O)[C@H](O)[C@H]1O[C@@H]1O[C@H](CO)[C@@H](O)[C@H](O)[C@H]1O)C(C)(C)O)[C@H]1CC[C@@]2(C)[C@@H]3CC=C4[C@@H](CC[C@H](O[C@@H]5O[C@H](CO)[C@@H](O[C@@H]6O[C@H](CO)[C@@H](O)[C@H](O)[C@H]6O)[C@H](O)[C@H]5O)C4(C)C)[C@]3(C)[C@H](O)C[C@]12C [Isomogroside V]
[1]
  Aftertaste and mouthfeel compared with stevia (in words): lower licorice aftertaste and lower bitter aftertaste as compared with stevia while having a better mouthfeel

## C[C@H](CC[C@@H](O[C@@H]1O[C@H](CO[C@@H]2O[C@H](CO)[C@@H](O)[C@H](O)[C@H]2O)[C@@H](O)[C@H](O)[C@H]1O[C@@H]1O[C@H](CO)[C@@H](O)[C@H](O)[C@H]1O)C(C)(C)O)[C@H]1CC[C@@]2(C)[C@@H]3CC=C4[C@@H](CC[C@H](O[C@@H]5O[C@H](CO)[C@@H](O)[C@H](O)[C@H]5O)C4(C)C)[C@]3(C)[C@H](O)C[C@]12C [Siamenoside I]
[1]
  Aftertaste and mouthfeel compared with stevia (in words): lower licorice aftertaste and lower bitter aftertaste as compared with stevia while having a better mouthfeel
[2]
  Peak Sweetness: 6.571 (b)_
[3]
  Peak Sweetness: 7.375 (a)_

## C[C@H](CC[C@@H](O[C@@H]1O[C@H](CO[C@H]2O[C@H](CO)[C@@H](O)[C@H](O)[C@H]2O)[C@@H](O)[C@H](O)[C@H]1O[C@@H]1O[C@H](CO)[C@@H](O)[C@H](O)[C@H]1O)C(C)(C)O)[C@H]1CC[C@@]2(C)[C@]3(C)CC=C4[C@@H](CC[C@H](O[C@@H]5O[C@H](CO)[C@@H](O)[C@H](O)[C@H]5O)C4(C)C)[C@]3(C)[C@H](O)C[C@]12C [siratose]
[4]
  Off-taste and mouth coating compared with Reb M (in words): slightly lower off-taste and higher mouth coating than Reb M
  Sweetness compared with mogroside V (in words): greater sweetness than mogroside V
[4]; [8]
  Licorice Aftertaste: 2.9
  Lingering Sweetness: 4.4
  Mouth Coating: 3.0
  Overall Off-Taste: 3.1
[4]; [9]
  Delayed Sweetness: 4.1
  Sweetness: 5.8
[4]; same concentration
  Sweetness and delayed sweetness compared with control Reb M (in words): high sweetness score and an increased delayed sweetness compared to the control Reb M samples
[5]; 200 ppm and 400 ppm
  Sensory profile compared with Reb M (in words): improved sweetness as comparted to Reb M
  Sensory profile compared with mogroside V (in words): sweeter than mogroside V at both 200 ppm and 400 ppm, while having a similar aftertaste profile
[5]; [10]
  Licorice Aftertaste: 1.0
  Lingering Sweetness: 3.1
  Mouth Coating: 3.2
  Overall Off-Taste: 1.9
[5]; [11]
  Astringence: 0.5
  Delayed Sweetness: 1.7
  Fattiness: 3.1
  Sourness: 0.5
  Sweetness: 5.6
[5]; [12]
  Licorice Aftertaste: 1.1
  Lingering Sweetness: 4.0
  Mouth Coating: 0.8
  Overall Off-Taste: 2.4
[5]; [13]
  Astringence: 0.5
  Bitterness: 0.6
  Delayed Sweetness: 2.3
  Fattiness: 3.6
  Global Flavor Intensity: 5.1
  Sourness: 0.5
  Sweetness: 7.1
[1]
  Aftertaste and mouthfeel compared with stevia (in words): lower licorice aftertaste and lower bitter aftertaste as compared with stevia while having a better mouthfeel
[6]
  Sensory profile compared with mogroside V (in words): higher sweetness and global flavor intensity as compared to mogroside V while having a similar aftertaste profile
[6]; [14]
  Bitterness Aftertaste: 1.3
  Licorice Aftertaste: 2.3
  Lingering Sweetness: 4.3
  Overall Off-Taste: 3.9
[6]; [15]
  Bitterness: 2.1
  Delayed Sweetness: 3.9
  Global Flavor Intensity: 4.5
  Sweetness: 6.0
[6]; same concentration
  Sensory profile compared with control Reb M (in words): high sweetness score and similar in-mouth and aftertaste attributes as the control Reb M samples
[7]
  Sensory profile compared with mogroside V (in words): sweeter, less bitter, and have a higher global flavor intensity than mogroside V, while having a lower overall off taste, licorice aftertaste, and bitterness aftertaste
[7]; [16]
  Bitterness Aftertaste: 1.1
  Licorice Aftertaste: 1.8
  Lingering Sweetness: 3.4
  Overall Off-Taste: 2.8
[7]; 250 ppm, 10-point scale
  Bitterness: 1.5
  Delayed Sweetness: 2.2
  Global Flavor Intensity: 3.7
  Sweetness: 4.2
  Thickness/Body: 1.5
[7]; [17]
  Licorice Aftertaste: 2.8
  Lingering Sweetness: 5.2
  Mouth Coating: 2.6
  Overall Off-Taste: 4.0
[7]; 500 ppm, 10-point scale
  Bitterness: 1.7
  Delayed Sweetness: 3.4
  Global Flavor Intensity: 4.6
  Sweetness: 5.9
  Thickness/Body: 1.8
[7]; same concentration
  Sensory profile compared with control Reb M (in words): high sweetness score and similar in-mouth and aftertaste attributes as the control Reb M samples

## Isomogroside IVE
[1]
  Aftertaste and mouthfeel compared with stevia (in words): lower licorice aftertaste and lower bitter aftertaste as compared with stevia while having a better mouthfeel
[3]
  Bitterness: 1.313
